From paper PMC11862924, “Phenylpyrazoles as Inhibitors of the m^6A RNA-Binding Protein YTHDF2” (JACS Au, 2025)
Entries after “also recorded” stand apart in the source; their conditions may differ.

What was measured:
[1] = biological target: T1, YTHDF1 (residues 375-552) (Homo sapiens, UniProt Q9BYJ9); assay: FP assay with YTH domain of YTHDF1; format: binding; details: 0.5 µM YTHDF1, m6A RNA probe 4 nM
T1 construct: Plasmids of the YTH domain of YTHDF1 (residues 375–552); made in house; host or cells: Escherichia coli BL21(DE3); plasmid from the Zhou lab (Boston College)
T1 sequence (Q9BYJ9 375-552): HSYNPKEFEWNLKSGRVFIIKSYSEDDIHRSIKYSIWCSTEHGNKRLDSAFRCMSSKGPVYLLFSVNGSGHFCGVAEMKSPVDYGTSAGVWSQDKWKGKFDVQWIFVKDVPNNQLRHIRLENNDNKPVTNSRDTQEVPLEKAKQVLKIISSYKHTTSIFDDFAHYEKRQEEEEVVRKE
Description: The FP assay was performed in 384-well black plates (Corning no. 4514) with a total reaction volume of 15 μL. The final concentrations of protein (YTHDF2) and RNA were […], respectively, in a buffer containing 20 mM HEPES/KOH pH 7.5, 50 mM NaCl, 0.005% Tween 20, and 1 mM GSH (DTT). Compounds were incubated with protein, added FAM-m^6A RNA probe ([…](m6)ACUGUG) (purchased from IDT), and incubated at 4 °C for 30 min. The fluorescence polarization was measured using a plate reader (TECAN Spark) under an excitation wavelength of 485 nm and an emission wavelength of 535 nm with a bandwidth of 20 nm. […] The data were determined using GraphPad Prism 9.
Figure S8. The FP assay of YTHDF1 binding to the m6A RNA substrate. (A)The purification of YTHDF1 (residues 375-552), molecular weight: 21.9 kDa. (B) The anisotropy values using different concentrations of YTHDF1 with the m6A RNA probe (4 nM), which was used to decide the appropriate […] concentration for the FP (0.5 µM of YTHDF1, Z-factor: 0.65). (C) The […]
(§1) (1 picture or pasted object on this page, not shown here)

YTHDC2 = biological target: T2, YTHDC2 (Homo sapiens, UniProt Q9H6S0); assay: EMSA with YTHDC2; format: binding; details: m6A RNA 20 nM, 10 µM YTHDC2
T2 construct: YTHDC2 (residues 1285–1424); made in house; host or cells: Escherichia coli BL21(DE3); plasmid from the Zhou lab (Boston College)
T2 sequence (Q9H6S0 1285-1424): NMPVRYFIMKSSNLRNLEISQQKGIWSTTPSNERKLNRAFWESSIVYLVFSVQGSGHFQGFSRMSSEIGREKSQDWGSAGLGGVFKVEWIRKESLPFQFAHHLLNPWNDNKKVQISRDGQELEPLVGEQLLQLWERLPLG
Description: (§2) Compounds with different concentrations (3.1–100 μM) were incubated with 250 nM YTH-domain and 20 nM FAM-17mer-RNA in a buffer containing 20 mM HEPES, pH 8.2, 50 mM NaCl, 0.05% Triton X-100, and 5% v/v glycerol for 20 min at 4 °C. The samples were subjected to 12% native polyacrylamide gel and run at 120 V for 90 min at 4 °C using 0.5× TBE buffer. Gel imaging was performed in ChemiDoc MP (Bio-Rad), and Cy2/Alexa488 fluorescence was detected with a 1-min exposure time. Quantification of the gel image was performed by ImageJ.
Figure S15. EMSA using m6A RNA and YTHDC2 protein of varied concentrations as indicated.
(A) 20 nM of m6A RNA was used and 10 µM of YTHDC2 was chosen for EMSA. (B) CK-61, CK-
as §1

[2] = MTT cytotoxicity assay, JAR; format: cell-based; details: human, JAR cells, triplicates, read-out: Cytotoxicity against cancer cells (IC50), JAR
Description: JAR, K562, and HCT116 cells were seeded in 96-well plates (3500 cells/well) and incubated for 8 h. The medium with different concentrations of compounds (100, 33.3, 11.1, 3.7, 1.2, and 0.4 μM) was added to the 96-well plates. Data were normalized to the medium with 0.1% DMSO. After incubation for 72 h, MTT solution (5 mg/mL, 20 μL) was added per well in a dark environment and incubated for 4 h. After the medium was discarded, DMSO (150 μL) was added per well, and the absorbance was measured at 492 nm by a plate reader (TECAN Spark).

YTHDC1 = biological target: T3, YTHDC1 (Homo sapiens, UniProt Q96MU7); assay: EMSA with YTHDC1; format: binding; details: m6A RNA 20 nM
T3 construct: YTHDC1 (residues 345–509); made in house; host or cells: Escherichia coli BL21(DE3); plasmid from the Zhou lab (Boston College)
Description: as §2
Figure S14. The EMSA of YTHDC1 binding to the m6A RNA substrate. (A) The YTHDC1–RNA
complex formation in EMSA using m6A RNA (20 nM) and different concentrations of YTHDC1.
as §1

YTHDF3 = biological target: T4, YTHDF3 (Homo sapiens, UniProt Q7Z739); assay: EMSA with YTHDF3; format: binding; details: m6A RNA 20 nM
T4 construct: YTHDF3 (residues 391–585); made in house; host or cells: Escherichia coli BL21(DE3); plasmid from the Zhou lab (Boston College)
T4 sequence (Q7Z739 391-585): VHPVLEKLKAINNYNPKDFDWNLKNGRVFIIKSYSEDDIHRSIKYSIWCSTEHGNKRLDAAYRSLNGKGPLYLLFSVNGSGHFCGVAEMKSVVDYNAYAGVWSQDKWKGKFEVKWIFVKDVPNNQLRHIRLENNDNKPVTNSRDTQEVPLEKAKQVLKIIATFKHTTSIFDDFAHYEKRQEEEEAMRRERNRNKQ
Description: as §2
Figure S13. The EMSA of YTHDF3 binding to the m 6A RNA substrate. (A) The YTHDF 3–RNA
complex formation in EMSA using m 6A RNA (20 nM) and different concentrations of YTHDF1 . (B)
as §1

K562 and JAR cells = assay: Dot blot assay of cellular RNA m6A methylation level; format: cell-based, human; details: different concentrations, highest 25 μM
Description: JAR and K562 cells were seeded in six-well plates (1.0 × 10^6 cells/well) and incubated overnight. The cells were scraped off directly and then washed with PBS. Total RNA was then extracted with the Aurum Total RNA Mini Kit. The RNA concentration was determined by NanoDrop 2000c (Thermo) and then heated for 5 min at 95 °C. Primary antibody Rb pAb to N^6-methyladenosine (m^6A) (Abcam, ab286164, 1:1000) and secondary antibody HRP-conjugated AffiniPure Goat Anti-Rabbit IgG(H+L) (SA00001–2, 1:8000) were used. Chemiluminescent detection was performed using a ChemiDoc MP (Bio-Rad).

inhibitory activity against YTHDF1 in FP (in words) [1] | IC50 ([1]; read-out: IC50 against YTHDF1 in FP) [µM] | Compound | inhibition of m6A RNA binding to YTHDC2 in EMSA (in words) (YTHDC2) | IC50 at 72 h [2] [µM] | inhibition of m6A RNA binding to YTHDC1 in EMSA (in words) (YTHDC1) | inhibition of m6A RNA binding to YTHDF3 in EMSA (in words) (YTHDF3) | effect on global m6A RNA abundance (dot blot, in words) (K562 and JAR cells)
inactive |  | Cc1cc(O)c(C(=O)c2cnn(-c3ccc(C(=O)O)cc3)c2)cc1Cl [CK-79] | did not show detectable inhibitory activity; also recorded: did not show detectable inhibition | 31.6 | did not show detectable inhibitory activity; also recorded: did not show detectable inhibition | did not show detectable inhibitory activity; also recorded: did not show detectable inhibition | did not significantly impact
inactive |  | O=C(O)c1ccc(-n2cc(C(=O)c3c(O)ccc4ccccc34)cn2)cc1 [CK-75] | did not show detectable inhibitory activity; also recorded: did not show detectable inhibition | 47.5 | did not show detectable inhibitory activity; also recorded: did not show detectable inhibition | did not show detectable inhibitory activity; also recorded: did not show detectable inhibition | did not significantly impact
 | 67.5 | O=C(O)c1ccc(-n2cc(C(=O)c3cc(Cl)cc(Cl)c3O)cn2)cc1 [CK-61] | did not show detectable inhibitory activity; also recorded: no activity | > 50 | did not show detectable inhibitory activity; also recorded: no activity | did not show detectable inhibitory activity; also recorded: no activity | slight increase
